“And” between values parts separate entries of the source, which are not always exact repeats. Equal values may be shown once. “Also recorded” adds a separate entry of the source.
How the values were obtained:
[1] = system: kidney tissues of treated or untreated rats; assay: Real-time qRT-PCR of marker transcripts in kidney tissue panel, discovery stage (Table 22); format: in vivo, rat; parameters: AI502869_DB71_seg0 normalized Real Time PCR expression: unit not given beside the values; settings: rat kidney, listed as CadCl
Method: Before RT preparation the RNA was treated with DNA-free (Ambion, cat. No. AM1906) DNase treatment and removal—according to manufacturer protocol. DNase procedure was repeated until no DNA is detected in a PCR reaction using the RNA samples.
The mixture is then incubated for 5 min at 65° C. and then quickly chilled on ice. Thereafter, 20 μl of 5× SuperscriptII first strand buffer (Invitrogen, Cat. No. Y00146), 9.6 μl 0.1M DTT (Invitrogen, Cat. No. Y00147) and 160 units RNasin (Promega, Cat. No. N251A) are added, and the mixture is incubated for 10 min at 25° C., followed by further incubation at 42° C. for 2 min. […] The resulting cDNA is diluted 1:20 in TE buffer (10 mM Tris pH=8, 1 mM EDTA pH=8).
cDNA (5 μl), prepared as described above, is used as a template in Real-Time PCR reactions using the SYBR Green I assay (PE Applied Biosystem) with specific primers in 100 nM concentration if not indicated otherwise and UNG Enzyme (Eurogentech or equal) Amplification is effected as follows: 50° C. for 2 min, 95° C. for 10 min, and then 40 cycles of 95° C. for 15 sec, followed by 60° C. for 1 min (if not indicated otherwise). Amplification step is followed by dissociation step. Detection is performed by using the PE Applied Biosystem SDS 7000. The cycle in which the reactions achieved a threshold level (Ct) of fluorescence is registered and is used to calculate the relative transcript quantity in the RT reactions. Non-detected samples are assigned Ct value of 41 and are calculated accordingly. The relative quantity is calculated using the equation Q=efficiencŷ-Ct. The efficiency of the PCR reaction is calculated from a standard curve, created by using serial dilutions of several reverse transcription (RT) reactions. To minimize inherent differences in the RT reaction, the resulting relative quantities are normalized to normalization factor calculated as follows: […]
The relative quantity (Q) of each housekeeping gene in each sample is calculated as described above. In order to calculate the “relative Q relative to MED” each Q for each HSKP gene is divided by the median quantity of this gene in all panel samples. To finally achieve the normalization factor of each sample the geometric mean of all four “relative Q relative to MED” was calculated. The normalization factor was then used for further calculations.
The markers of the present invention were tested with regard to their expression in a panel of kidney tissues samples from treated and control rats. Unless otherwise noted, all experimental data relates to the novel polynucleotides and proteins of the present invention, named according to the segment being tested (as expression was tested through RT-PCR as described). Tests were then performed as described in the “Materials and Experimental Procedures” section above.
The qRT-PCR measurements were normalized according to each samples normalization factor as described in “RT Preparation and Real-Time qRT-PCR Analysis” and further multiplied by a constant factor for ease of viewing.

[2] = system: Sprague-Dawley Crl:CD(SD) rats; assay: Rat toxicity study, single, 5-day and 28-day treatment (clinical observation, clinical pathology, autopsy, organ weights, histopathology);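 further: control rats received saline intraperitoneally, and the organs examined were adrenals, brain, kidneys, liver, spleen and thymus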
Method: Control animals were treated intraperitoneal with saline.
Randomization and group allocation: prior to treatment, the animals were assigned to the experimental groups based on their body weight. Mean body weight of each group at randomization was not deviate±20% of the mean population weight. Males and females were randomized separately. For the randomization, a computer program was used.
The day before autopsy, urinalysis was performed and blood samples were taken for hematology and clinical chemistry examinations.
On the day of autopsy the animals were anaesthetized with isoflurane, blood was collected for PBMC isolation then subjected to autopsy. Tissues and organs (adrenals, brain, kidneys, liver, spleen and thymus) were weighed and subjected to gross pathological and histopathological examinations.

[3] = day5, individual animals (F and M)
[4] = day28, individual animals (F and M)
[5] = 5-day treatment, compared with controls

## [Cl][Cd][Cl] [Cadmium chloride]
[1]; [3]
  W41270_DB81_seg11 normalized Real Time PCR: 2.49 and 1.17 and 1.02 and 1.43 and 1.52
  W64472_DB81_seg2 normalized Real Time PCR: 1.65 and 0.78 and 2.23 and 1.89 and 1.63
  W83813_DB81_seg27 normalized Real Time PCR: 3.79 and 1.59 and 1.48 and 1.67 and 1.76
[1]; day5, individual animals
  AA686189_DB71_seg6 normalized Real Time PCR expression: 0.47 and 0.29 and 0.39 and 0.5 and 0.38
  AA799594_DB71_seg0 normalized Real Time PCR expression: 1.12 and 0.9 and 1.23 and 0.98 and 1.01
  AA964541_DB71_seg0 normalized Real Time PCR expression: 0.29 and 0.27 and 0.42 (2×) and 0.41
  AI045075_DB71_seg6 normalized Real Time PCR expression: 0.98 and 0.49 and 0.85 and 0.81 and 0.83
  AI454051_DB71_seg0 normalized Real Time PCR expression: 1.54 and 1.35 and 0.84 and 0.68 and 0.92
  AI502869_DB71_seg0 normalized Real Time PCR expression: 0.94 and 0.73 and 0.69 and 0.68 and 0.85
  AW919147_DB71_seg0 normalized Real Time PCR expression: 1.06 and 1.86 and 1.3 and 0.94 and 1
  BI293562_DB71_seg2 normalized Real Time PCR expression: 0.43 and 0.63 and 0.48 and 0.88 and 0.78
  H31045_DB71_seg5 normalized Real Time PCR expression: 0.56 and 0.32 and 0.42 and 0.4 and 0.46
  H31799_DB71_seg23 normalized Real Time PCR expression: 0.83 and 0.99 and 1.17 and 0.98 and 0.94
  H31883_DB71_seg13 normalized Real Time PCR expression: 0.87 and 0.86 and 0.83 and 0.78 and 0.64
[1]; [4]
  H33998_DB71_seg19 normalized Real Time PCR: 1.26 and 0.59 and 0.43 and 0.45 and 0.26 and 0.41
  MUSCYCG1R_DB81_seg15-17 normalized Real Time PCR: 0.88 and 0.71 and 0.65 and 0.72 and 0.44 and 0.58
  RATLRFI_DB71_seg9 normalized Real Time PCR: 0.66 and 0.85 and 1.78 and 0.28 and 0.67 and 0.56
  RATRAB13X_DB71_seg11-13 normalized Real Time PCR: 1.37 and 0.92 and 0.96 and 1.11 and 1.08 and 0.88
  RNU24174_DB71_seg8 normalized Real Time PCR: 0.21 and 0.45 and 1.21 and 0.25 (2×) and 0.39
  W41270_DB81_seg11 normalized Real Time PCR: 0.86 and 0.55 and 0.83 and 0.33 and 0.27 and 0.39
  W64472_DB81_seg2 normalized Real Time PCR: 0.89 and 0.55 and 0.43 and 0.67 and 0.47 and 0.57
  W83813_DB81_seg27 normalized Real Time PCR: 0.95 and 0.64 and 0.46 (2×) and 0.34 and 0.53
[1]; day28, individual animals
  AA686189_DB71_seg6 normalized Real Time PCR expression: 0.64 and 0.58 and 1.94 and 0.4 and 0.51 and 0.82
  AA799594_DB71_seg0 normalized Real Time PCR expression: 1.14 and 0.88 and 0.37 and 0.66 and 0.77 and 0.83
  AA964541_DB71_seg0 normalized Real Time PCR expression: 0.32 (2×) and 0.42 and 1.72 and 0.55 and 0.72
  AI045075_DB71_seg6 normalized Real Time PCR expression: 1.72 and 1.15 and 0.86 and 0.75 and 0.63 and 0.71
  AI454051_DB71_seg0 normalized Real Time PCR expression: 0.79 and 1.05 and 0.54 and 1.29 and 1.31 and 0.75
  AI502869_DB71_seg0 normalized Real Time PCR expression: 0.73 and 1.22 and 0.44 and 2.47 and 2.93 and 1.18
  AW919147_DB71_seg0 normalized Real Time PCR expression: 0.77 and 0.91 and 0.42 and 1.31 and 1.18 and 0.68
  BI293562_DB71_seg2 normalized Real Time PCR expression: 0.4 and 0.81 and 2.59 and 0.72 and 1.35 and 0.31
  H31045_DB71_seg5 normalized Real Time PCR expression: 2.88 and 0.83 and 0.57 and 2.23 and 2.41 and 2
  H31799_DB71_seg23 normalized Real Time PCR expression: 1.59 and 0.94 and 0.67 and 1.05 and 1.02 and 0.76
  H31883_DB71_seg13 normalized Real Time PCR expression: 0.97 and 1.02 and 0.86 (2×) and 0.95 and 0.8
[2]; 5-day treatment
  Autopsy findings: No effect
  Body weight gain: Body weight gain decreased in both sexes; also recorded: Decreased body weight gain was recorded in males
  Clinical pathology: Slightly increased Gamma GT values were recorded in females; also recorded: ♀: ↑ γGT
  Clinical symptoms: mild clinical symptoms (hollow psoas, colic) immediately after the administration
  Histopathology / renal damage: No renal damage was found
[2]; [5]
  Organ weight: Lower thymus weights
  Water consumption: Decrease in Tobramycin and Cadmium chloride treated females
[2]; 28-day treatment
  Body weight and body weight gain: affected body weight gain in both sexes; also recorded: Effect on body weight and body weight gain was seen
  Clinical symptoms: Mild clinical symptoms (hollow psoas, colic) were recorded in both sexes; also recorded: Clinical symptoms were observed
  Histopathology / nephrotoxicity: significant nephrotoxicity was found only in a single female; also recorded: ♂: lymphoid depletion
  Water consumption: Slightly lower water consumption was recorded in males
[2]; 28-day treatment, blood and urine
  Clinical pathology: AST (Aspartate Aminotransferase) values were elevated in both sexes; also recorded: A few transitional epithelial cells were observed in the urine of females; also recorded: ♀: trans. epith
[2]; 28-day treatment, compared with controls
  Water consumption, males: Sight decrease during the last week
[2]; 28-day treatment, females
  Decreasing order of nephrotoxicity at histopathological examination: Cisplatin, Cadmium chloride, Gentamycin, Doxorubicin and Tobramycin in females
[2]; 28-day treatment, male and female rats
  Autopsy findings: Round bordered spleen and liver and thickening of peritoneum were recorded in both sexes; also recorded: Pale and enlarged kidneys were found in a single female; also recorded: Round bordered liver, enlarged spleen and thickening of the peritoneum were found in both sexes
[2]; 28-day treatment, male and female rats, compared with controls
  Organ weight: higher liver and spleen weight; also recorded: increased weight of kidneys and decreased thymus were recorded in females; also recorded: Increased liver weights in groups of both sexes; also recorded: Higher weights of kidneys in females; also recorded: Weights of spleen were higher in Gentamycin treated males and Cadmium chloride treated groups of both sexes; also recorded: Decreased thymus weights
[2]; single and 5-day treatment
  Clinical symptoms: Clinical symptoms were observed only in Cadmium chloride groups of both sexes
[2]; single treatment
  Body weight gain: Decreased body weight gain was recorded in both sexes
  Clinical pathology: Lower lymphocytes and increased neutrophils counts were found in males
  Clinical symptoms: Mild clinical symptoms (hollow psoas, colic) were observed in both sexes
